Measurements as given in patent US20020102230A1, “Method for inactivating pathogens” (priority 2000, published 2002).
Converted amounts (≈) assume the structure as drawn. Values belong to the molecule of their own block, whether it stands above or below them.

Assays:
HIV-1 (RF) = format: cell-based; details: 6 days, MTS, control, row printed in μM, read-out: Ic50, activity against HIV-1 in CEM-SS cells
Method: (§1) CEM-SS cells (obtained from the AIDS Research and Reference Reagent Repository, Bethesda, Md.) are passaged in T-75 flasks in tissue culture media (RP 1640 medium (no phenol red) with 10% Fetal Bovine Serum (heat inactivated), 2 mM L-glutamine, 100 U/mL penicillin, 100 μg/mL streptomycin, and 10 μg/mL gentamycin). On the day preceding the assay, the cells are split 1:2. On the day of assay the cells are collected by centrifugation, washed twice with tissue culture medium and resuspended in fresh tissue culture medium. Total cell and viability counting is performed using a hemacytometer. Cell viability prior to the assay is determined by Trypan Blue dye exclusion and must exceed 95%. A pretitered aliquot of HIV-1 RF (AIDS Research and Reference Reagent Repository, Bethesda, Md.), CEM-SS cells and compound are placed into microtiter plates. Each plate contains cell control wells (cells only), virus control wells (cell plus virus), drug toxicity control wells (cells plus drugs only), drug calorimetric control wells (drugs only) as well as experimental wells (drug plus cells plus virus) . Cultures are incubated for 6 days at 37° C., 5% CO2 and antiviral activity and compound toxicity determined by MTS staining.

CEM-SS cells = tested on: CEM-SS cells
Method: as §1

IIIB strain of HIV [1] = details: virus adsorption interval of 1 h; cited from earlier work
[2] = tested on: herpes simplex virus type 1 (HSV-1) strain HF; experiment: Virus induced cytopathic effects (CPE) inhibition assay in Vero cells (MTS); format: cell-based; details: Human alphaherpesvirus 1, Vero, read-out: Ic50 against HSV-1 virus
Excerpt: (§2) A virus induced cytopathic effects (CPE) inhibition assay procedure using Promega's cell titer aqueous one solution (MTS, metabolic dye similar to XTT) is employed to evaluate compounds for antiviral activity against herpes simplex virus type 1 (HSV-1) strain HF in Vero cells. Vero cells are pregrown in 96 well tissue culture plates using Dulbecco's modified eagle's media (DMEM) supplemented with 10% heat inactivated fetal bovine serum (FBS), L-glutamine, penicillin and streptomycin. Antiviral assays are designed to test six half log dilution of each compound in triplicate against the challenge virus in microtiter plate wells containing host cell monolayers. To each of the replicate cell cultures is added 50 uL of the test drug solution and 50 uL of virus suspension. Cell control containing medium alone, virus infected controls containing medium and virus, drug cytotoxicity controls containing medium and each drug concentration, reagent controls containing culture medium only (no cells), and drug calorimetric controls containing drug and medium (no cells) are run simultaneously with the test samples. The plates are incubated at 37° C. in a humidified atmosphere containing 5% CO2 until maximum CPE is observed in the untreated virus control cultures (day 5). CPE inhibition is determined by the dye (MTS) uptake procedure. […]

[3] = Drug cytotoxicity in Vero cells (MTS), HSV-1 assay; format: cell-based; details: African green monkey
Excerpt: as §2

IIIB strain of HIV [4] = experiment: Virus attachment assay (HeLa CD4 LTR β-gal cells); format: cell-based; details: Human immunodeficiency virus 1, 1 h adsorption
Method: (§3) This assay is designed to detect compounds that interact with the cell and block virus attachment, and/or compounds that interact with the forming attachment/fusion complex. The attachment assay is performed with HeLa CD4 LTR β-gal cells. HeLa CD4 LTR β-gal cells are routinely cultured with the required selection antibiotics. Twenty-four hours prior to initiation of the assay the cells are trypsinized, counted, and 1×10^4 cells placed in a 0.2 cm well in media without selection antibiotics. At 24 h media is removed and compound in media placed on the cells and incubated for 15 min at 37° C. […] At the end of the incubation, the wells are washed 3 times with media and the culture continued for 40 to 48 h. At termination of the assay, media is removed and β-galactosidase enzyme expression determined by chemiluminescence per manufacturer instructions (Tropix Gal-screen™, Bedford Mass.) by a single step chemiluminescent method using a single solution to lyse the cells and detect β-galactosidase enzyme activity. Compound toxicity is monitored on a sister plate by XTT dye reduction. All determinations are performed in triplicate with serial ½ Log10 dilution of the test materials.

HeLa CD4 LTR β-gal cells [5] = experiment: Compound toxicity (XTT, sister plate) in the virus attachment assay; format: cell-based
Method: as §3

HeLa CD4 LTR β-gal cells [6] = experiment: Compound toxicity (XTT, sister plate) in the fusion assay; format: cell-based
Method: The fusion assay assesses the ability of compounds to block cell-to-cell fusion mediated by HIV-1 Env and CD4 expressed on separate cells. This assay is sensitive to inhibitors of both the gp120/CD4 interaction and inhibitors of the X4 coreceptor. First, 5×10^3 HeLa CD4 LTR β-gal cells are placed in microtiter wells and incubated overnight. The following day the media is removed and the HeLa CD4 LTR β-gal cells are incubated for 1 h at 37° C. in fresh media with test compound. Following the incubation 5×10^3 HL2/3 cells are added and the incubation continued for 40 to 48 h. At 40 to 48 h β-galactosidase enzyme expression is detected by chemiluminescence (Tropix Gal-screen™, Tropix, Bedford, Mass.). Compound toxicity is monitored on a sister plate using XTT dye reduction. All determinations are performed in triplicate with serial ½ Log10 dilution of the test materials.

[7] = tested on: vaginal/cervical epithelial and other cells; details: concentrations as low as; cited from earlier work

IC50 (HIV-1 (RF)): 0.005 µM
Molecule: Cc1cn([C@H]2C[C@H](N=[N+]=[N-])[C@@H](CO)O2)c(=O)[nH]c1=O [AZT]
CC50 (CEM-SS cells): > 1 µM
Activity in the virus attachment assay (in words) (IIIB strain of HIV [1]): not active

Molecule: Nc1nc2c(ncn2COCCO)c(=O)[nH]1 [Acyclovir]
IC50 [2]: 2.7 µM
CC50 at 5 day [3]: > 10 µg/mL

IC50 (IIIB strain of HIV [4]): 0.32 µg/mL (≈ 0.354 µM)
Molecule: COc1cc(-c2ccc(/N=N/c3ccc4c(S(=O)(=O)O)cc(S(=O)(=O)O)c(N)c4c3O)c(OC)c2)ccc1/N=N/c1ccc2c(S(=O)(=O)O)cc(S(=O)(=O)O)c(N)c2c1O [Chicago Sky Blue]
Attachment Assay TC50 (HeLa CD4 LTR β-gal cells [5]): >10 µg/mL
Fusion Assay TC50 (HeLa CD4 LTR β-gal cells [6]): >10 µg/mL

Molecule: Nonoxynol-9
Concentration that can injure vaginal/cervical epithelial and other cells [7]: about 0.0005%
